How the values were obtained:
[1] = Selectivity ratio of Ki for bovine eNOS to Ki for rat nNOS
[2] = Selectivity ratio of Ki for mouse iNOS to Ki for rat nNOS
Nitric oxide synthase 1 [3] = target: T1, Nitric oxide synthase 1 (Rattus norvegicus, UniProt P29476); assay: Inhibition of rat nNOS expressed in HEK293T cells preincubated for 30 mins prior A23187-induced activation measured after 6 hrs by Griess assay; format: cell-based, HEK-293T
Nitric oxide synthase 1 [4] = target: T1, Nitric oxide synthase 1; assay: Inhibition of recombinant rat nNOS expressed in Escherichia coli by hemoglobin capture assay

T1 sequence (P29476 whole entry): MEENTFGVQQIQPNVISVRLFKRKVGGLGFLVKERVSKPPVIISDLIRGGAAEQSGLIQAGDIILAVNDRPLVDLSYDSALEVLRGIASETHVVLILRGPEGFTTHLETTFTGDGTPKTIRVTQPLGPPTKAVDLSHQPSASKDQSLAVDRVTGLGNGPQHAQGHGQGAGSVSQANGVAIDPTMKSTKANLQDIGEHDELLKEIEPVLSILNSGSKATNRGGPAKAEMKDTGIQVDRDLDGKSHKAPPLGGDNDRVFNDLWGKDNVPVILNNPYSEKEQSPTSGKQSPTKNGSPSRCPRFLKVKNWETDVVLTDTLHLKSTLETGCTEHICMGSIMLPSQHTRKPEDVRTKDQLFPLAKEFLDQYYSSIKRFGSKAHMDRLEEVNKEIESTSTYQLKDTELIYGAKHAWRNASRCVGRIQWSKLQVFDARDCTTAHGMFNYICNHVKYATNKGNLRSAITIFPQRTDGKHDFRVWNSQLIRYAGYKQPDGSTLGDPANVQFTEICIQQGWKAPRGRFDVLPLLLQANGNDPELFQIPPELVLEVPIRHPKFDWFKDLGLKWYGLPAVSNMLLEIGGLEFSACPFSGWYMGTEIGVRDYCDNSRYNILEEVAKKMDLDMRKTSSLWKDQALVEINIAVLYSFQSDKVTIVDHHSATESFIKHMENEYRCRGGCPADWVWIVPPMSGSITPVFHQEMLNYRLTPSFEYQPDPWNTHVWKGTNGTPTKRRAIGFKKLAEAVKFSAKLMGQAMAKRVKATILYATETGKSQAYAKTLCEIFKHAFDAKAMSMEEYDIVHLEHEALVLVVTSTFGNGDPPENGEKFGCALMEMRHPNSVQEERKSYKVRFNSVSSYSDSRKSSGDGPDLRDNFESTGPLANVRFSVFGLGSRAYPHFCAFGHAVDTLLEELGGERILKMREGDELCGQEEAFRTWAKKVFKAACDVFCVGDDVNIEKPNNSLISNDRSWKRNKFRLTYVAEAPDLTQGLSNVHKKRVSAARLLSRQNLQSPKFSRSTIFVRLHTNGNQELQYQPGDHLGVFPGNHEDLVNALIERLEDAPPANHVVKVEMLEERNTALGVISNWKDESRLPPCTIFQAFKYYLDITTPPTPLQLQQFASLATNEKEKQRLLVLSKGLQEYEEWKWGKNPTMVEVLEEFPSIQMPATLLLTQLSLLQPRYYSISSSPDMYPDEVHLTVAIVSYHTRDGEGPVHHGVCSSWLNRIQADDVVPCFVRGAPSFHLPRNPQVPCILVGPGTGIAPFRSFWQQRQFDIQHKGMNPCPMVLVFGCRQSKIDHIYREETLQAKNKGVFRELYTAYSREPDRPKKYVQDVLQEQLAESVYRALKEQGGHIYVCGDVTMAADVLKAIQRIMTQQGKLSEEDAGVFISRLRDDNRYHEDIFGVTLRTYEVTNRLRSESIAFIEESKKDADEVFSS

Row | SMILES | Ratio Ki [1] | Ratio Ki [2] | IC50 (Nitric oxide synthase 1 [3]) [µM] | IC50 (Nitric oxide synthase 1 [4]) [µM]
1 | COc1ccccc1CNCCO[C@@H]1CNC[C@@H]1Cc1cc(C)cc(N)n1 | 93 | 139 | 22 | 
2 | Cc1cc(C)nc(N)c1 |  |  | 25 | 0.05
3 | Cc1cc(N)nc(C[C@H]2CNC[C@H]2OCCNCc2ccccc2O)c1 | 93 | 143 | 43 | 
4 | Cc1cc(N)nc(C[C@H]2CNC[C@H]2OCCNCc2ccccc2F)c1 | 98 | 105 | 11 | 
5 | Cc1cc(N)nc(C[C@H]2CNC[C@H]2OCCNCc2ccco2)c1 | 169 | 92 | 100 | 
